How the values were obtained:
[1] = test system: PDX-PR011 tumor xenograft; assay: PDX-PR011 patient-derived CRPC tumor xenograft in male SCID mice, tumor growth; format: in vivo, mouse; conditions: treatment from Day 1; KCI807 IP as for 22Rv1; enzalutamide oral 50 mg/Kg daily
Procedure: FIG. 5B is a graph showing results obtained when PDX-PR011 tumor xenografts were implanted sc into male SCID mice in both flanks. The vehicle control and KCI807 were administered as described for FIG. 5A with the exception that treatment was begun on Day 1 after tumor implantation. Tumor volumes were monitored as described herein.
FIG. 14 is a graph showing results obtained when PDX-PR011 tumor xenografts were implanted sc into male SCID mice in both flanks. […] Treatment was begun on Day 1 after tumor implantation.

C4-2 cells = assay: Cell growth assay; format: cell-based
Description: FIG. 16C is a graph showing the effect of 5′-Fluoro-5,3′-Dihydroxyflavone at various concentrations on growth of C4-2 cells.

binding of AR to ELK1 = binding of AR to ELK1 (Homo sapiens, UniProt P10275); assay: SPR competition: inhibition of binding of AR (analyte) to immobilized ELK1; conditions: AR 200 nM as analyte
Procedure: The sensor surface was regenerated between experiments by dissociating any formed complex in HBS-N buffer for 30 min, followed by a further 30-min stabilization period. After regeneration, the SPR signal returned to the original level (baseline). In all cases, baseline was established in the presence of the vehicle used for the compounds (DMSO) appropriately diluted in HBS-N buffer. The binding curves were analyzed using the heterogeneous analyte competition model. The kinetic curves were analyzed for a one-to-one Langmuir fitting model provided by with the Biacore 3000 instrument software.

BT474 cells = assay: Breast cancer cell growth, MTT assay; format: cell-based
Procedure: (§1) Twenty four hours after plating the cells, they were treated with the indicated concentrations of the compound.

T47D cells = assay: Breast cancer cell growth, MTT assay; format: cell-based
Procedure: as §1

MCF-7 cells = assay: Breast cancer cell growth, MTT assay; format: cell-based
Procedure: as §1

[2] = Body weight and condition of mice in the PDX-PR011 xenograft study; conditions: for % body weight lost/gained: PDX-PR011 study
[3] = test system: HeLa (cervical cancer cells), AR-negative; assay: Cell monolayer growth assay (MTT); format: cell-based
Procedure: (§2) FIG. 12B is a graph showing the effect of KCI807 on in vitro growth of AR-negative cell line HeLa cells measured by the MTT assay. All values were plotted relative to the Day zero value. Cells were trypsinized and 3000-4000 cells/well were seeded in 96-well plates coated with poly-D-lysine. The cells were seeded in phenol red-free medium supplemented with 10% FBS, 100 units/ml penicillin, 100 μg/ml streptomycin, 2 mM L-glutamine mixture and sodium pyruvate (1 mM) for LNCaP cells and phenol red-free medium supplemented with 10% FBS, 100 units/ml penicillin, 100 μg/ml streptomycin and 2 mM L-glutamine mixture for VCaP, 22Rv1, DU145, HeLa, HEK293 and H1650 cells. The cells were grown at 37° C. in 5% CO2. Twenty four hours after seeding in the 96-well plates, the cells were treated with the indicated concentration of KCI807 or DMSO (vehicle). The cells were re-treated on Day 3 by removing half the volume of medium and replacing it with fresh treated medium. Cell viability was determined using the MTT assay from day zero until day five. MTT (10 μL, 5 mg/mL) was added to each well and incubated for 2h at 37° C. The formazan crystal sediments were dissolved in 100 μL of DMSO, and the absorbance at 570 nm was measured using the BioTek Synergy 2 Microplate Reader (BioTek, Winooski, Vt.). The assay was conducted in sextuplicate wells and values were normalized to day zero.

[4] = test system: H1650 (lung adenocarcinoma cells), AR-negative; assay: Cell monolayer growth assay (MTT); format: cell-based
Procedure: as §2, with “FIG. 12D” for “FIG. 12B”, “line H1650” for “line HeLa”

[5] = test system: protein level of AR or AR-V7; assay: Western blot of AR in LNCaP, VCaP and 22Rv1 cells; format: cell-based; conditions: VCaP, 10 μM, 24h
Procedure: Protein lysates were extracted after 24h of treatment and probed using antibodies to AR and GAPDH (loading control).
The treated cells were washed once with phosphate buffered saline (PBS) and then lysed with RIPA buffer (150 mM NaCl, 1% Nonidet P-40, 0.5% sodium deoxycholate, 0.1% SDS, 50 mM Tris of pH 8.0) containing a protease inhibitor cocktail (Pierce, Thermo Fisher Scientific). The cell lysates were then incubated on ice for 40 minutes and vortexed every 10 minutes. Total protein concentrations were estimated using the Bradford Assay (Bio-Rad). Ten micrograms of each protein sample was heated at 95° C. for 5 minutes and resolved by electrophoresis on 8% polyacrylamide-SDS gels and electrophoretically transferred to PVDF membranes (Millipore, Billerica, Mass.). The membranes were then probed overnight at 4° C. with the appropriate primary antibody followed by the appropriate horseradish peroxidase-conjugated secondary antibody. The blots were then developed to visualize the protein bands using the HyGLO

[6] = male, SCID, mouse, in vivo, ip, 250 mg/kg, 6 h

binding of AR to ELK1, sequence (P10275 whole entry): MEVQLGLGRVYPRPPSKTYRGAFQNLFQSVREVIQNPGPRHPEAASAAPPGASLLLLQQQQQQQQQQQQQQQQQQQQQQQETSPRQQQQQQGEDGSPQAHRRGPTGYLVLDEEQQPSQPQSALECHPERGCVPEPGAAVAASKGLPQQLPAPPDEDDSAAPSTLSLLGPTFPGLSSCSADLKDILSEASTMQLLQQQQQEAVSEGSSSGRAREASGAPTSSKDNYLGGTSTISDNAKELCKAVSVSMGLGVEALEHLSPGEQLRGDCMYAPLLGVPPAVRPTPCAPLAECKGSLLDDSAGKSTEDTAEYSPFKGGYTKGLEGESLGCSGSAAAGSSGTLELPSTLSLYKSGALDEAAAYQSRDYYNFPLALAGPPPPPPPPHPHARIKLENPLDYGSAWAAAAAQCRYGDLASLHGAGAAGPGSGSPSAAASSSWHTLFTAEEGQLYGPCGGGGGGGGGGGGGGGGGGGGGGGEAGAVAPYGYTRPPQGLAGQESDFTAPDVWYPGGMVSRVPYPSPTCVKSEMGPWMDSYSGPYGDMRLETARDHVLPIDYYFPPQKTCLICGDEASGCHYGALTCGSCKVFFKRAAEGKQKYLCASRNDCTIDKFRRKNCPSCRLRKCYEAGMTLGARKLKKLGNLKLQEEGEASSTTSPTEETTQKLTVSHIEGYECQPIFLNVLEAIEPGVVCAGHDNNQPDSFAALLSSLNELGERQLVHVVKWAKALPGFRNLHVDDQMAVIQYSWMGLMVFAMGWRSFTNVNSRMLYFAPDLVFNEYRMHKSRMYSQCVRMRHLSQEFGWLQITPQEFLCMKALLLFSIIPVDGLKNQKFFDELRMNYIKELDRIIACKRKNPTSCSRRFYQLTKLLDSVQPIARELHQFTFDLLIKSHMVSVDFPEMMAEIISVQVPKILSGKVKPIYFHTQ

## CNC(=O)c1ccc(N2C(=S)N(c3ccc(C#N)c(C(F)(F)F)c3)C(=O)C2(C)C)cc1F [enzalutamide]
[1]
  tumor growth inhibition, PDX-PR011 xenograft: not inhibited

## O=c1cc(-c2cc(O)cc(F)c2)oc2cccc(O)c12 [5′-fluoro-5,3′-dihydroxyflavone]
C4-2 cells
  growth inhibition of C4-2 cells: inhibited growth

## O=c1cc(-c2cccc(O)c2)oc2cccc(O)c12 [KCI807, 5,3′-dihydroxyflavone]
Binding of AR to ELK1
  inhibition of binding of AR to immobilized ELK1: blocked binding
BT474 cells
  growth of BT474 cells: growth inhibitory
T47D cells
  growth of T47D cells: growth inhibitory
MCF-7 cells
  growth of MCF-7 cells: growth inhibitory
[2]; Day 1 after tumor implant
  % body weight lost/gained: 0%
[2]; Day 2 after tumor implant
  % body weight lost/gained: −3.8%
[2]; Day 3 after tumor implant
  % body weight lost/gained: −4.6%
[2]; Day 4 after tumor implant
  % body weight lost/gained: −2.3%
[2]; Day 5 after tumor implant
  % body weight lost/gained: −2.3%
[2]; Day 6 after tumor implant
  % body weight lost/gained: −1.5%
[2]; Day 7 after tumor implant
  % body weight lost/gained: 0%
[2]; Day 8 after tumor implant
  % body weight lost/gained: −1.5%
[2]; Day 9 after tumor implant
  % body weight lost/gained: +0.8%
[2]; Day 10 after tumor implant
  % body weight lost/gained: +0.8%
[2]; Day 11 after tumor implant
  % body weight lost/gained: +1.5%
[2]; Day 12 after tumor implant
  % body weight lost/gained: +3.1%
[2]; mouse, in vivo
  symptoms during the study, PDX-PR011 xenograft: asymptomatic
  weight loss (in words), PDX-PR011 xenograft: did not show appreciable weight loss
[1]
  tumor growth inhibition, PDX-PR011 xenograft: significantly inhibited
[3]
  growth of HeLa cells: did not appreciably affect the growth
[4]
  growth of H1650 cells: did not appreciably affect the growth
[5]
  protein level of AR or AR-V7: in no case did KCI807 treatment alter the protein level
[6]
  plasma level of unmetabolized compound (median), Day 11: 387 nM
  plasma level of unmetabolized compound (median), Day 19: 70 nM

— US11185527B2, “Methods and compositions relating to steroid hormone receptor-dependent cancers” (Wayne State University, priority 2017, dated 2021)
